Experimental data: paper PMC4689404, “2-Benzazolyl-4-Piperazin-1-Ylsulfonylbenzenecarbohydroxamic Acids as Novel Selective Histone Deacetylase-6 Inhibitors with Antiproliferative Activity” (PLoS ONE, 2015)

Assays:
MOLT-4 = assay: NCI 60 screen, five dose; assay type: cell-based; settings: Homo sapiens, Leukemia, GI50 = molar concentration, read-out: Log10 GI50 (converted)
MDA-MB-468 = assay: NCI 60 screen, five dose; assay type: cell-based; settings: Homo sapiens, Breast Cancer, GI50 = molar concentration, read-out: Log10 GI50 (converted)

Structure (SMILES)	GI50 (MOLT-4) [µM]	GI50 (MDA-MB-468) [µM]
O=C(NO)c1ccc(S(=O)(=O)N2CCN(c3nc4ccccc4s3)CC2)cc1 [Compound 9d, 4-(4-Benzothiazol-2-yl-piperazin-1-sulfonyl)-N -hydroxy-benzamid]	3.02	–
O=C(NO)c1ccc(S(=O)(=O)N2CCN(c3nc4ccccc4o3)CC2)cc1 [Compound 9c, 4-(4-Benzoxazol-2-yl-piperazin-1-sulfonyl)-N -hydroxy-benzamid]	–	11
